Values joined by “and” are separate entries in the source; they are usually repeats but may differ in a detail not shown here. Equal entries are not always repeated.
Tested on: XBP1s-luc 293 LUC
Test: cellular PD assay, XBP1s-LUC reporter (Example 903)
Assay type: cell-based
Conditions: Table 1; read-out: XBP1s-luc 293 LUC (IC50)
Protocol: Inhibition of IRE1α RNase activity was determined in an enzyme assay that measured cleavage of the XBP1 stem loop by autophosphorylated IRE1α. This assay format was chosen to ensure that inhibitors of either the IRE1α kinase or the RNase domains would be identified. Binding to the ATP pocket and inhibition of IRE1α kinase activity are not necessarily required to inhibit the RNase activity. Compounds were also profiled in cellular assays by direct measurement of XBP s (B-DNA assay) or by quantification of the luciferase signal in HT1080 XBP1-Luc, which carries a luciferase fusion that is only in frame and expressed from the spliced XBP1 transcript.
Biological activity of Formula I or I′ compounds was measured by an IRE1 biochemical binding assay (Example 901), a biochemical RNase assay (Example 902), a cellular PD assay, XBP1s-LUC reporter (Example 903), and an IRE1α-based inhibition of multiple myeloma (MM) cell proliferation assay.
All of the exemplary Formula I or I′ compounds in Tables 1 and 2 were made and characterized by LCMS [M+H]^+ (liquid chromatography mass spectroscopy) with detection of parent ion. All of the exemplary Formula I compounds in Tables 1 and 2 were prepared according to the procedures of the Schemes, General Procedures, and Examples. All of the exemplary Formula I or I′ compounds in Tables 1 and 2 were tested for binding to IRE1 (inositol requiring enzyme 1 alpha) and biological activity according to the assays and protocols of Example 901-903. Exemplary Formula I or I′ compounds in Tables 1 and 2 have the following structures, corresponding IUPAC names (ChemBioDraw, Version 12.0.2, CambridgeSoft Corp., Cambridge Mass.), and biological activity. Where more than one name is associated with a Formula I or I′ compound or intermediate in Tables 1 and 2 and the Experimental Procedures, the chemical structure shall define the compound. Assignment of configuration at chiral centers in separated stereoisomers may be tentative, and depicted in Tables 1 and 2 structures for illustrative purposes, before stereochemistry is definitively established, such as from x-ray crystallographic data. In some cases, stereoisomers are separated and tested for biological activity before the stereochemistry of the separated stereoisomers is determined; and stereochemistry in some instances was inferred based on structure-activity relationship (SAR) knowledge from previous compounds. In some cases, the compounds are tested as racemic or diastereomeric mixtures. Where more than one potency value is entered on a row, separated stereoisomers represented by the structure and name on that row were tested. Exemplary compounds of Formula I or I′ in Table 3 can be prepared using methods known in the art or according to procedures similar to those described in the Schemes, General Procedures, and Examples 101-500. Biological activities of compounds in Table 3 can be tested in biological assays, for example, those in Examples 901, 902 and 903 described herein.

Structure (SMILES): Cc1ccc2c(NC(=O)C3CC3C(C)C)cccc2c1Oc1ncccc1-c1ccnc(N[C@H]2CCCNC2)n1 (single isomer, unassigned) [Example 230]
- IC50: 80 nM

Structure (SMILES): Cc1ccc2c(NC(=O)[C@@H]3C[C@@H]3C)cccc2c1Oc1ncccc1-c1ccnc(N[C@H]2CCCNC2)n1 (single isomer, unassigned) [Example 231]
- IC50: 53 nM and 33.3 nM

Structure (SMILES): Cc1ccc2c(N3C(=O)C4CCCC43)cccc2c1Oc1ncccc1-c1ccnc(N[C@H]2CCCNC2)n1 (single isomer, unassigned) [Example 248]
- IC50: 457 nM

Structure (SMILES): Cc1ccc2c(NC(=O)[C@H]3CC34CCCC4)cccc2c1Oc1ncccc1-c1ccnc(N[C@H]2CCCNC2)n1 (single isomer, unassigned) [Example 253]
- IC50: 352 nM

Structure (SMILES): Cc1ccc2c(NC(=O)[C@@H]3CC34CCCC4)cccc2c1Oc1ncccc1-c1ccnc(N[C@H]2CCCNC2)n1 (single isomer, unassigned) [Example 254]
- IC50: 69 nM

Structure (SMILES): Cc1ccc2c(N3CC[C@H](C)C3=O)cccc2c1Oc1ncccc1-c1ccnc(N[C@H]2CCCNC2)n1 (single isomer, unassigned) [Example 257]
- IC50: 264 nM

Structure (SMILES): CC[C@@H]1CCN(c2cccc3c(Oc4ncccc4-c4ccnc(N[C@H]5CCCNC5)n4)c(C)ccc23)C1=O (single isomer, unassigned) [Example 266]
- IC50: 121 nM

Structure (SMILES): Cc1ccc2c(NC(=O)[C@@H]3CCC(F)(F)C3)cccc2c1Oc1ncccc1-c1ccnc(N[C@H]2CCCNC2)n1 (single isomer, unassigned) [Example 269]
- IC50: 336 nM

Structure (SMILES): Cc1ccc2c(NC(=O)[C@H]3CCC(F)(F)C3)cccc2c1Oc1ncccc1-c1ccnc(N[C@H]2CCCNC2)n1 (single isomer, unassigned) [Example 270]
- IC50: 189 nM

Structure (SMILES): Cc1ccc2c(NC(=O)[C@H]3CC3C3CC3)cccc2c1Oc1ncccc1-c1ccnc(N[C@H]2CCCNC2)n1 (single isomer, unassigned) [Example 273]
- IC50: 305 nM

Structure (SMILES): Cc1ccc2c(NC(=O)[C@@H]3CC3C3CC3)cccc2c1Oc1ncccc1-c1ccnc(N[C@H]2CCCNC2)n1 (single isomer, unassigned) [Example 274]
- IC50: 100 nM

Structure (SMILES): Cc1ccc2c(NC(=O)[C@@H]3CCC(C)C3)cccc2c1Oc1ncccc1-c1ccnc(N[C@H]2CCCNC2)n1 (single isomer, unassigned) [Example 277]
- IC50: 171 nM

Structure (SMILES): Cc1ccc2c(NC(=O)[C@H]3CCC(C)C3)cccc2c1Oc1ncccc1-c1ccnc(N[C@H]2CCCNC2)n1 (single isomer, unassigned) [Example 278]
- IC50: 313 nM

Structure (SMILES): Cc1ccc2c(NC(=O)[C@@H]3CC3(C)C)cccc2c1Oc1ncccc1-c1ccnc(N[C@H]2CCCNC2)n1 (single isomer, unassigned) [Example 287]
- IC50: 39.4 nM

Structure (SMILES): Cc1ccc2c(NC(=O)[C@H]3CC3(C)C)cccc2c1Oc1ncccc1-c1ccnc(N[C@H]2CCCNC2)n1 (single isomer, unassigned) [Example 288]
- IC50: 185 nM

Structure (SMILES): Cc1ccc2c(NCC[C@@H]3CC3(F)F)cccc2c1Oc1ncccc1-c1ccnc(N[C@H]2CCCNC2)n1 (single isomer, unassigned) [Example 291]
- IC50: 361 nM

Structure (SMILES): Cc1ccc2c(NCC[C@H]3CC3(F)F)cccc2c1Oc1ncccc1-c1ccnc(N[C@H]2CCCNC2)n1 (single isomer, unassigned) [Example 292]
- IC50: 294 nM

Structure (SMILES): Cc1ccc2c(NC(C)c3cscn3)cccc2c1Oc1ncccc1-c1ccnc(N[C@H]2CCCNC2)n1 (single isomer, unassigned) [Example 295]
- IC50: 209 nM

Structure (SMILES): Cc1ccc2c(NC(=O)CC(C)(C)C)c(F)ccc2c1Oc1ncccc1-c1ccnc(N[C@@H]2CNC[C@@H](F)C2)n1 (single isomer, unassigned) [Example 322]
- IC50: 40.7 nM

Structure (SMILES): CCCS(=O)(=O)Nc1c(F)ccc2c(Oc3ncccc3-c3ccnc(N[C@@H]4CNCC[C@H]4C)n3)c(C)ccc12 (single isomer, unassigned) [Example 327]
- IC50: 254 nM

Structure (SMILES): CCCS(=O)(=O)Nc1c(F)ccc2c(Oc3ncccc3-c3ccnc(N[C@@H]4CNC[C@@H](F)C4)n3)c(C)ccc12 (single isomer, unassigned) [Example 328]
- IC50: 15.2 nM

Structure (SMILES): CC[C@@H]1CCN(c2cccc3c(Oc4ncccc4-c4ccnc(N[C@@H]5CNC[C@H](C)C5)n4)c(C)ccc23)C1=O (single isomer, unassigned) [Example 331]
- IC50: 57.9 nM

Structure (SMILES): CC[C@H]1CCN(c2cccc3c(Oc4ncccc4-c4ccnc(N[C@@H]5CNC[C@H](C)C5)n4)c(C)ccc23)C1=O (single isomer, unassigned) [Example 332]
- IC50: 194 nM

Structure (SMILES): Cc1ccc2c(NC[C@H](O)CF)cccc2c1Oc1ncccc1-c1ccnc(N[C@H]2CCCNC2)n1 (single isomer, unassigned) [Example 333]
- IC50: 44.6 nM

Structure (SMILES): Cc1ccc2c(NC[C@@H](O)CF)cccc2c1Oc1ncccc1-c1ccnc(N[C@H]2CCCNC2)n1 (single isomer, unassigned) [Example 334]
- IC50: 89.7 nM

Structure (SMILES): Cc1ccc2c(NC(=O)[C@H]3CC34CCC4)cccc2c1Oc1ncccc1-c1ccnc(N[C@H]2CCCNC2)n1 (single isomer, unassigned) [Example 339]
- IC50: 137 nM

Structure (SMILES): Cc1ccc2c(NC(=O)[C@@H]3CC34CCC4)cccc2c1Oc1ncccc1-c1ccnc(N[C@H]2CCCNC2)n1 (single isomer, unassigned) [Example 340]
- IC50: 17.7 nM

Structure (SMILES): Cc1ccc2c(NC[C@H]3CC3(F)F)cccc2c1Oc1ncccc1-c1ccnc(N[C@H]2CCCNC2)n1 (single isomer, unassigned) [Example 342]
- IC50: 121 nM

Structure (SMILES): Cc1ccc2c(NC[C@@H]3CC3(F)F)cccc2c1Oc1ncccc1-c1ccnc(N[C@H]2CCCNC2)n1 (single isomer, unassigned) [Example 343]
- IC50: 181 nM

Structure (SMILES): Cc1ccc2c(NC[C@@H]3CCOC3)cccc2c1Oc1ncccc1-c1ccnc(N[C@H]2CCCNC2)n1 (single isomer, unassigned) [Example 351]
- IC50: 500 nM

Structure (SMILES): Cc1ccc2c(NC[C@H]3CCOC3)cccc2c1Oc1ncccc1-c1ccnc(N[C@H]2CCCNC2)n1 (single isomer, unassigned) [Example 352]
- IC50: 499 nM

Structure (SMILES): CC[C@H]1CCN(c2cccc3c(Oc4ncccc4-c4ccnc(N[C@H]5CCCNC5)n4)c(C)ccc23)C1=O (single isomer, unassigned) [Example 355]
- IC50: 365 nM

Structure (SMILES): CCC1CC(=O)N(c2cccc3c(Oc4ncccc4-c4ccnc(N[C@H]5CCCNC5)n4)c(C)ccc23)C1 (single isomer, unassigned) [Example 356]
- IC50: 279 nM

Structure (SMILES): CCC1CCC(=O)N1c1cccc2c(Oc3ncccc3-c3ccnc(N[C@H]4CCCNC4)n3)c(C)ccc12 (single isomer, unassigned) [Example 357]
- IC50: 260 nM

Structure (SMILES): Cc1ccc2c(NC(=O)[C@H]3CCCC3C)cccc2c1Oc1ncccc1-c1ccnc(N[C@H]2CCCNC2)n1 (single isomer, unassigned) [Example 372]
- IC50: 470 nM

Structure (SMILES): Cc1ccc2c(NC(=O)[C@@H]3CCCC3C)cccc2c1Oc1ncccc1-c1ccnc(N[C@H]2CCCNC2)n1 (single isomer, unassigned) [Example 373]
- IC50: 193 nM

Structure (SMILES): Cc1ccc2c(NC(=O)[C@H]3CC34CC4)c(F)ccc2c1Oc1ncccc1-c1ccnc(N[C@H]2CCCNC2)n1 (single isomer, unassigned) [Example 379]
- IC50: 279 nM

Structure (SMILES): Cc1ccc2c(NC(=O)[C@@H]3CC34CC4)c(F)ccc2c1Oc1ncccc1-c1ccnc(N[C@H]2CCCNC2)n1 (single isomer, unassigned) [Example 380]
- IC50: 56.6 nM

Structure (SMILES): Cc1ccc2c(NCC(C)C#N)cccc2c1Oc1ncccc1-c1ccnc(N[C@H]2CCCNC2)n1 (single isomer, unassigned) [Example 382]
- IC50: 62.3 nM

Structure (SMILES): Cc1ccc2c(NC(=O)[C@H]3CC34CCC4)c(F)ccc2c1Oc1ncccc1-c1ccnc(N[C@H]2CCCNC2)n1 (single isomer, unassigned) [Example 386]
- IC50: 280 nM

Structure (SMILES): Cc1ccc2c(NC(=O)[C@@H]3CC34CCC4)c(F)ccc2c1Oc1ncccc1-c1ccnc(N[C@H]2CCCNC2)n1 (single isomer, unassigned) [Example 387]
- IC50: 28.3 nM

Structure (SMILES): Cc1ccc2c(NC(=O)[C@H]3CC34CC4)c(F)ccc2c1Oc1ncccc1-c1ccnc(N[C@@H]2CNC[C@H](C)C2)n1 (single isomer, unassigned) [Example 388]
- IC50: 136 nM

Structure (SMILES): Cc1ccc2c(NC(=O)[C@@H]3CC34CC4)c(F)ccc2c1Oc1ncccc1-c1ccnc(N[C@@H]2CNC[C@H](C)C2)n1 (single isomer, unassigned) [Example 389]
- IC50: 41.7 nM
